These results are taken from patent publication US6890885B2, “Herbicidal composition” (priority 2000, dated 2005).

Where “and” joins values, the source holds several entries; their conditions need not be identical. Equal entries are not always repeated.

Holding throughout (assay type): in vivo
Data set [1] relates to Monocotyledonous and dicotyledonous test plants. Put plainly: Pre-emergence test: herbicidal action (% action) of single active ingredients and mixtures, with expected action We according to Colby. The settings on record: for herbicidal action (% action): evaluated after 36 days. The text has this:
(§1) The herbicidal action to be expected We for a given combination of two herbicides can be calculated as follows (see COLBY, S. R., “Calculating synergistic and antagonistic response of herbicide combinations”, Weeds 15, pages 20-22,1967):
(§2) When the action actually observed is greater than the value to be expected We, there is a synergistic effect.
Experiment Description—Pre-emergence Test
Monocotyledonous and dicotyledonous test plants are sown in standard soil in plastics pots. Directly after sowing, the test substances are applied in aqueous suspension by spraying (500 liters of water/ha). The rates of application depend on the optimum doses ascertained under field conditions and greenhouse conditions. The test plants are then grown on in the greenhouse under optimum conditions. The tests are evaluated after 36 days (% action, 100%=plant has died, 0%=no phytotoxic action).
In the following Tables, evaluation is carried out after 14 days:
In the following Tables, evaluation is carried out after 31 days: […]

A further data set concerns test plants. Put plainly: Post-emergence test: herbicidal action (% action) of the herbicide on its own and as a mixture, with expected action We according to Colby.
Description: A synergistic effect exists whenever the action of the active ingredient combination of compounds of formula 1 and 2.1 to 2.51 is greater than the sum of the actions of the active ingredients applied separately.
as §1
• X=percentage herbicidal action on treatment with the compound of formula I at a rate of application of p kg per hectare, compared with the untreated control (=0%). • Y=percentage herbicidal action on treatment with a compound of formula 2.1 to 2.51 at a rate of application of q kg per hectare, compared with the untreated control. • We=expected herbicidal action (percentage herbicidal action compared with the untreated control) following treatment with the compounds of formulae 1 and 2.1 to 2.51 at a rate of application of p+q kg of active ingredient per hectare.
as §2
Experiment Description—Post-emergence Test
The test plants are grown to the 2- to 3-leaf stage in plastics pots under greenhouse conditions. A standard soil is used as cultivation substrate. At the 2- to 3-leaf stage, the herbicide is applied to the test plants on its own and as a mixture. The application is carried out using an aqueous suspension of the test substances in 500 liters of water/ha. The rates of application depend on the optimum doses ascertained under field conditions and greenhouse conditions. The tests are evaluated after 33 days (% action, 100%=plant has died, 0%=no phytotoxic action).
Mixture A contains as active ingredients 915 g/liter of the compound of formula 2.2a and 45 g/liter of the compound of formula 3.1.
In the following Tables, evaluation is carried out after 21 days: […]

The test system of data set [2] is crop plants, e.g. maize and cereals. As to the kind of experiment: Safening action: phytotoxic action of the herbicides on crop plants with and without safener. The following applies: 50 g/ha herbicide alone, applied at 4-leaf stage, 4 weeks after application. How it is done: Biological Example: Safening Action
The test plants are grown in plastics pots under greenhouse conditions to the 4-leaf stage. At that stage, the herbicides alone, and the mixtures of the herbicides with the test compounds that are to be tested as safeners, are applied to the test plants. The application is in the form of an aqueous suspension of the test compounds prepared from a 25% wettable powder (Example F3, b)) with 500 liters of water/ha. 4 weeks after application, the phytotoxic action of the herbicides on the crop plants, e.g. maize and cereals, is evaluated using a percentage scale. 100% denotes that the test plant has died, 0% denotes no phytotoxic action.
The same results are obtained when the mixtures are formulated in accordance with Examples F1, F2 and F4 to F8.

For `Cc1nc(C(F)(F)F)ccc1C(=O)C1=C(O)C2CCC(C2)C1=O` (centres unmarked) [Compound 1.001, 4-hydroxy-3-(2-methyl-6-trifluoromethyl-pyridine-3-carbonyl)-bicyclo[3.2.1]oct-3-en-2-one], the herbicidal action is listed as 10% in data set [1] (Amaranthus, 6 g/ha, after 23 days); 50% in data set [1] (Chenopodium, 6 g/ha, after 23 days (Table B37)); 50% in data set [1] (Chenopodium, 6 g/ha, after 23 days (Table B38)); 80% in data set [1] (Chenopodium, 12.5 g/ha, after 14 days (Table B19)); 80% in data set [1] (Chenopodium, 12.5 g/ha, after 14 days (Table B20)); 80% in data set [1] (Chenopodium, 25 g/ha, after 14 days). Besides, the herbicidal action in data set [1] (Cyperus, 12.5 g/ha, after 14 days (Table B19)) turned out to be 0%; in data set [1] (Cyperus, 12.5 g/ha, after 14 days (Table B20)) it was 0%; in data set [1] (Cyperus, 25 g/ha, after 14 days (Table B18)), 0%; in data set [1] (Cyperus, 25 g/ha, after 14 days (Table B22)), 10%; in data set [1] (Ipomoea, 25 g/ha, after 31 days (Table B25)) it was 70%; in data set [1] (Ipomoea, 25 g/ha, after 31 days (Table B26)), 70%. Moreover, the herbicidal action is reported as 70% in data set [1] (Ipomoea, 25 g/ha, after 31 days (Table B27)); 0% in data set [1] (Polygonum, 25 g/ha, after 31 days (Table B23)); 0% in data set [1] (Polygonum, 25 g/ha, after 31 days (Table B24)); 0% in data set [1] (Polygonum, 50 g/ha, after 31 days); 75% in data set [1] (Solanum, 12.5 g/ha, after 14 days (Table B19)); 75% in data set [1] (Solanum, 12.5 g/ha, after 14 days (Table B20)). Further, the herbicidal action in data set [1] (Solanum, 12.5 g/ha, after 14 days (Table B21)) is on record as 75%; in data set [1] (Solanum, 25 g/ha, after 14 days), 80%; in data set [1] (Xanthium, 25 g/ha, after 31 days (Table B25)), 80%; in data set [1] (Xanthium, 25 g/ha, after 31 days (Table B26)) it was 80%; in data set [1] (Xanthium, 25 g/ha, after 31 days (Table B27)), 80%; in the data set with test plants (Ipomoea, 6.25 g/ha, post-emergence, after 33 days), 0%. Moreover, the herbicidal action with test plants (Ipomoea, 6.25 g/ha, post-emergence, after 33 days (Table B10)) is 0%; in the data set with test plants (Ipomoea, 12.5 g/ha, post-emergence, after 21 days), 30%; in the data set with test plants (Ipomoea, 12.5 g/ha, post-emergence, after 33 days) it was 0%; in the data set with test plants (Ipomoea, 12.5 g/ha, post-emergence, after 33 days (Table B8)), 0%; in the data set with test plants (Ipomoea, 25 g/ha, post-emergence, after 21 days (Table B29)), 30%; in the data set on test plants (Ipomoea, 25 g/ha, post-emergence, after 21 days (Table B30)) it was 30%. Also, the herbicidal action in the data set on test plants (Ipomoea, 25 g/ha, post-emergence, after 21 days (Table B31)) is on record as 30%; in the data set on test plants (Ipomoea, 25 g/ha, post-emergence, after 21 days (Table B33)), 30%; in the data set with test plants (Polygonum, 6.25 g/ha, post-emergence, after 33 days), 0%; in the data set on test plants (Polygonum, 6.25 g/ha, post-emergence, after 33 days (Table B10)) it was 0%; in the data set with test plants (Polygonum, 12.5 g/ha, post-emergence, after 21 days (Table B32)), 30%; in the data set with test plants (Polygonum, 12.5 g/ha, post-emergence, after 21 days (Table B34)), 30%. The herbicidal action with test plants (Polygonum, 12.5 g/ha, post-emergence, after 21 days (Table B35)) was 30%; in the data set with test plants (Polygonum, 12.5 g/ha, post-emergence, after 33 days), 0%; in the data set on test plants (Polygonum, 12.5 g/ha, post-emergence, after 33 days (Table B8)), 0%; with test plants (Polygonum, 25 g/ha, post-emergence, after 21 days (Table B29)) it was 75%; with test plants (Polygonum, 25 g/ha, post-emergence, after 21 days (Table B31)) it was 75%; with test plants (Polygonum, 25 g/ha, post-emergence, after 21 days (Table B36)), 75%. In addition, the herbicidal action was found to be 70% in the data set on test plants (Xanthium, 6.25 g/ha, post-emergence, after 33 days); 70% in the data set on test plants (Xanthium, 6.25 g/ha, post-emergence, after 33 days (Table B10)); 80% in the data set on test plants (Xanthium, 12.5 g/ha, post-emergence, after 33 days); 80% in the data set on test plants (Xanthium, 12.5 g/ha, post-emergence, after 33 days (Table B8)); 90% in the data set on test plants (Xanthium, 25 g/ha, post-emergence, after 21 days). Besides, the “herbicidal action (% action)” value in data set [1] (Chenopodium, Compd. 1.001 6.25 g/ha) was determined as 0%; in data set [1] (Chenopodium, Compd. 1.001 12.5 g/ha) it was 0%; in data set [1] (Chenopodium, Compd. 1.001 25 g/ha), 0%; in data set [1] (Ipomoea, Compd. 1.001 6.25 g/ha), 0%; in data set [1] (Ipomoea, Compd. 1.001 12.5 g/ha) it was 0%; in data set [1] (Ipomoea, Compd. 1.001 25 g/ha) it was 30%. The “herbicidal action (% action)” value in data set [1] (Sida, Compd. 1.001 6.25 g/ha) was found to be 0%; in data set [1] (Sida, Compd. 1.001 12.5 g/ha), 0%; in data set [1] (Sida, Compd. 1.001 25 g/ha), 0%; in data set [1] (Sorghum, Compd. 1.001 6.25 g/ha), 0%; in data set [1] (Sorghum, Compd. 1.001 12.5 g/ha), 0%; in data set [1] (Sorghum, Compd. 1.001 25 g/ha), 30%. Also, the values for the phytotoxic action in data set [2] (Abutilon), in data set [2] (Maize) and in data set [2] (Setaria) were 100%, 50% and 100%, respectively.
On to `CCc1cccc(C)c1N(COCCl)C(C)COC` (centres unmarked) [Compound 2.2.b, reference compound], for which the herbicidal action in data set [1] (Chenopodium, 300 g/ha, after 14 days) was 0%; in data set [1] (Cyperus, 300 g/ha, after 14 days) it was 0%; in data set [1] (Solanum, 300 g/ha, after 14 days) it was 40%.
With `CSc1nnc(C(C)(C)C)c(=O)n1N` [Compound 2.14, metribuzin, reference compound], the herbicidal action turned out to be 0% in data set [1] (Ipomoea, 125 g/ha, after 31 days); 30% in data set [1] (Polygonum, 125 g/ha, after 14 days (Table B13)); 50% in data set [1] (Polygonum, 250 g/ha, after 14 days); 20% in data set [1] (Xanthium, 125 g/ha, after 31 days).
`O=C(O)CNCP(=O)(O)O` [Compound 2.16, glyphosate, reference compound]: in the data set on test plants (in vivo), the herbicidal action is 20% and 10%.
For the compound `CCC(CC)Nc1c([N+](=O)[O-])cc(C)c(C)c1[N+](=O)[O-]` [Compound 2.18, pendimethalin, reference compound], the herbicidal action in data set [1] (Polygonum, 500 g/ha, after 14 days) came out at 80%.
Regarding `COc1c(Cl)ccc(Cl)c1C(=O)O` [Compound 2.19, dicamba, reference compound], in the data set on test plants (in vivo), the herbicidal action came out at 60%.
As for `COC(=O)CSc1cc(/N=c2\sc(=O)n3n2CCCC3)c(F)cc1Cl` [Compound 2.25, fluthiacet-methyl, reference compound], the herbicidal action with test plants (Ipomoea, 2 g/ha, post-emergence, after 21 days) was found to be 0%; in the data set with test plants (Polygonum, 2 g/ha, post-emergence, after 21 days) it was 0%.
Take `CC(C)N(C(=O)COc1nnc(C(F)(F)F)s1)c1ccc(F)cc1` [Compound 2.30, fluthiamid, reference compound]: the herbicidal action in data set [1] (Cyperus, 100 g/ha, after 14 days (Table B22)) is listed as 0%; in data set [1] (Polygonum, 60 g/ha, after 14 days (Table B15)) it was 30%.
`O=C(O)CNCP(=O)(O)O` [Compound 2.33, sulfosate, reference compound]: the herbicidal action in the data set with test plants (Polygonum, 360 g/ha, post-emergence, after 21 days (Table B32)) is on record as 0%.
